# In patent US7504400B2, “MTP inhibiting aryl piperydines or piperazines substituted with 5-membered heterocycles” (Janssen Pharmaceutica N.V., priority 2004, dated 2009):
# System: Secretion of ApoB
# Assay: Quantification of the secretion of ApoB in HepG2 cells
# Assay type: cell-based
# Conditions: Homo sapiens, HepG2, 24 h, 24 hours of incubation with test compound, immunoprecipitation of apoB from medium, read-out: pIC50 value (=-log IC50 value), secretion of ApoB (converted)
# Outline: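 At 70% confluency, HepG2 cells in MEM with 10% FCS received compound or DMSO carrier (0.4% final) for 24 h. Secreted apoB in cleared medium immunoprecipitated with sheep anti-apoB then rabbit anti-sheep antibody (24 h each, 8° C); pellet radioactivity counted by liquid scintillation; IC50 expressed as pIC50.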
row,Structure (SMILES),IC50
1,CCOC(=O)C(c1ccccc1)N1CCC(c2ccc(-n3ccn([C@H](C)c4cccc5ccccc45)c3=O)cc2)CC1 (stereo partly shown) [Compound 225],31.6 to 316 nM
2,CCOC(=O)C(c1ccccc1)N1CCC(c2ccc(-n3ccn([C@@H](C)c4cccc5ccccc45)c3=O)cc2)CC1 (stereo partly shown) [Compound 226],316 to 3160 nM
3,CCOC(=O)C(c1ccccc1)N1CCC(c2ccc(-n3ccn([C@H](C)c4ccccc4)c3=O)cc2)CC1 (stereo partly shown) [Compound 227],31.6 to 316 nM
4,CCOC(=O)C(c1ccccc1)N1CCC(c2ccc(-n3ccn([C@@H](C)c4ccccc4)c3=O)cc2)CC1 (stereo partly shown) [Compound 228],316 to 3160 nM
5,CCOC(=O)C(c1ccccc1)N1CCC(c2ccc(-n3ccn([C@H](C)c4ccc(Br)cc4)c3=O)cc2)CC1 (stereo partly shown) [Compound 229],31.6 to 316 nM
6,CCOC(=O)C(c1ccccc1)N1CCC(c2ccc(-n3ccn([C@@H](C)c4ccc(Br)cc4)c3=O)cc2)CC1 (stereo partly shown) [Compound 230],316 to 3160 nM
7,CCOC(=O)C(c1ccccc1)N1CCC(c2ccc(-n3ccn([C@@H](C)c4ccc5ccccc5c4)c3=O)cc2)CC1 (stereo partly shown) [Compound 231],316 to 3160 nM
8,CCOC(=O)C(c1ccccc1)N1CCC(c2ccc(-n3ccn([C@H](C)c4ccc5ccccc5c4)c3=O)cc2)CC1 (stereo partly shown) [Compound 232],31.6 to 316 nM
9,CCOC(=O)C(c1ccccc1)N1CCC(c2ccc(-n3ccn([C@H](C)c4ccc(C)cc4)c3=O)cc2)CC1 (stereo partly shown) [Compound 233],31.6 to 316 nM
10,CCOC(=O)C(c1ccccc1)N1CCC(c2ccc(-n3ccn([C@@H](C)c4ccc(C)cc4)c3=O)cc2)CC1 (stereo partly shown) [Compound 234],316 to 3160 nM
11,CCOC(=O)C(c1ccccc1)N1CCC(c2ccc(-n3ccn([C@H](C)c4ccc(Cl)cc4)c3=O)cc2)CC1 (stereo partly shown) [Compound 235],31.6 to 316 nM
12,CCOC(=O)C(c1ccccc1)N1CCC(c2ccc(-n3ccn([C@@H](C)c4ccc(Cl)cc4)c3=O)cc2)CC1 (stereo partly shown) [Compound 236],316 to 3160 nM
13,CCOC(=O)C(c1ccccc1)N1CCC(c2ccc(-n3ccn([C@H](C)c4cccc(OC)c4)c3=O)cc2)CC1 (stereo partly shown) [Compound 237],31.6 to 316 nM
14,CCOC(=O)C(c1ccccc1)N1CCC(c2ccc(-n3ccn([C@@H](C)c4cccc(OC)c4)c3=O)cc2)CC1 (stereo partly shown) [Compound 238],316 to 3160 nM
15,CCOC(=O)C(c1ccccc1)N1CCC(c2ccc(-n3ccn([C@H](COC)c4ccccc4)c3=O)cc2)CC1 (stereo partly shown) [Compound 239],316 to 3160 nM
16,CCOC(=O)C(c1ccccc1)N1CCC(c2ccc(-n3ccn([C@@H](COC)c4ccccc4)c3=O)cc2)CC1 (stereo partly shown) [Compound 240],316 to 3160 nM
17,CCOC(=O)C(c1ccccc1)N1CCC(c2ccc(-n3ccn([C@@H](C)C4CCCCC4)c3=O)cc2)CC1 (stereo partly shown) [Compound 241],316 to 3160 nM
18,CCOC(=O)C(c1ccccc1)N1CCC(c2ccc(-n3ccn(C(CC)c4ccccc4)c3=O)cc2)CC1 (stereo not shown) [Compound 242],31.6 to 316 nM
19,CCOC(=O)C(c1ccccc1)C1CCN(c2ccc(-n3ccn([C@@H](C)c4ccc(F)cc4)c3=O)cc2)CC1 (stereo partly shown) [Compound 243],316 to 3160 nM
20,CCOC(=O)C(c1ccccc1)C1CCN(c2ccc(-n3ccn([C@H](C)c4ccc(F)cc4)c3=O)cc2)CC1 (stereo partly shown) [Compound 244],31.6 to 316 nM
21,CCOC(=O)C(c1ccccc1)C1CCN(c2ccc(-n3ccn([C@H](C)c4cccc5ccccc45)c3=O)cc2)CC1 (stereo partly shown) [Compound 245],316 to 3160 nM
22,CCOC(=O)C(c1ccccc1)C1CCN(c2ccc(-n3ccn([C@@H](C)c4cccc5ccccc45)c3=O)cc2)CC1 (stereo partly shown) [Compound 246],316 to 3160 nM

row,Structure (SMILES),IC50
1,CCOC(=O)C(c1ccccc1)C1CCN(c2ccc(-n3ccn([C@H](C)c4ccccc4)c3=O)cc2)CC1 (stereo partly shown) [Compound 247],31.6 to 316 nM
2,CCOC(=O)C(c1ccccc1)C1CCN(c2ccc(-n3ccn([C@@H](C)c4ccccc4)c3=O)cc2)CC1 (stereo partly shown) [Compound 248],316 to 3160 nM
3,CCOC(=O)C(c1ccccc1)C1CCN(c2ccc(-n3ccn([C@H](C)c4ccc(Br)cc4)c3=O)cc2)CC1 (stereo partly shown) [Compound 249],31.6 to 316 nM
4,CCOC(=O)C(c1ccccc1)C1CCN(c2ccc(-n3ccn([C@@H](C)c4ccc(Br)cc4)c3=O)cc2)CC1 (stereo partly shown) [Compound 250],316 to 3160 nM
5,CCOC(=O)C(c1ccccc1)C1CCN(c2ccc(-n3ccn([C@@H](C)c4ccc5ccccc5c4)c3=O)cc2)CC1 (stereo partly shown) [Compound 251],316 to 3160 nM
6,CCOC(=O)C(c1ccccc1)C1CCN(c2ccc(-n3ccn([C@H](C)c4ccc5ccccc5c4)c3=O)cc2)CC1 (stereo partly shown) [Compound 252],316 to 3160 nM
7,CCOC(=O)C(c1ccccc1)C1CCN(c2ccc(-n3ccn([C@H](C)c4ccc(C)cc4)c3=O)cc2)CC1 (stereo partly shown) [Compound 253],31.6 to 316 nM
8,CCOC(=O)C(c1ccccc1)C1CCN(c2ccc(-n3ccn([C@@H](C)c4ccc(C)cc4)c3=O)cc2)CC1 (stereo partly shown) [Compound 254],316 to 3160 nM
9,CCOC(=O)C(c1ccccc1)C1CCN(c2ccc(-n3ccn([C@H](C)c4ccc(Cl)cc4)c3=O)cc2)CC1 (stereo partly shown) [Compound 255],31.6 to 316 nM
10,CCOC(=O)C(c1ccccc1)C1CCN(c2ccc(-n3ccn([C@@H](C)c4ccc(Cl)cc4)c3=O)cc2)CC1 (stereo partly shown) [Compound 256],316 to 3160 nM
11,CCOC(=O)C(c1ccccc1)C1CCN(c2ccc(-n3ccn([C@H](C)c4cccc(OC)c4)c3=O)cc2)CC1 (stereo partly shown) [Compound 257],316 to 3160 nM
12,CCOC(=O)C(c1ccccc1)C1CCN(c2ccc(-n3ccn([C@@H](C)c4cccc(OC)c4)c3=O)cc2)CC1 (stereo partly shown) [Compound 258],316 to 3160 nM
13,CCOC(=O)C(c1ccccc1)C1CCN(c2ccc(-n3ccn([C@H](COC)c4ccccc4)c3=O)cc2)CC1 (stereo partly shown) [Compound 259],316 to 3160 nM
14,CCOC(=O)C(c1ccccc1)C1CCN(c2ccc(-n3ccn([C@@H](COC)c4ccccc4)c3=O)cc2)CC1 (stereo partly shown) [Compound 260],316 to 3160 nM
15,CCOC(=O)C(c1ccccc1)C1CCN(c2ccc(-n3ccn([C@@H](C)C4CCCCC4)c3=O)cc2)CC1 (stereo partly shown) [Compound 261],31.6 to 316 nM
16,CCOC(=O)C(c1ccccc1)C1CCN(c2ccc(-n3ccn([C@H](C)C4CCCCC4)c3=O)cc2)CC1 (stereo partly shown) [Compound 262],31.6 to 316 nM
17,CCOC(=O)C(c1ccccc1)C1CCN(c2ccc(-n3ccn(C(CC)c4ccccc4)c3=O)cc2)CC1 (stereo not shown) [Compound 263],31.6 to 316 nM
18,COC(=O)CC1CCN(c2ccc(-n3ccn(C(C)c4ccccc4)c3=O)cc2)CC1 (stereo not shown) [Compound 264],316 to 3160 nM
19,CCOC(=O)C(c1ccccc1)N1CCN(c2ccc(-n3cnn(C(C)c4ccccc4)c3=O)cc2)CC1 (stereo not shown) [Compound 265],316 to 3160 nM
20,CCOC(=O)C(c1ccccc1)N1CCN(c2ccc(-n3cnn(C(C)c4ccc(F)cc4)c3=O)cc2)CC1 (stereo not shown) [Compound 266],316 to 3160 nM
21,CCOC(=O)C(c1ccccc1)N1CCC(c2ccc(-n3ccn([C@H](C)c4cccc(C(F)(F)F)c4)c3=O)cc2)CC1 (stereo partly shown) [Compound 276],31.6 to 316 nM
22,CCOC(=O)C(c1ccccc1)N1CCC(c2ccc(-n3ccn([C@H](C)c4ccc(C(F)(F)F)cc4)c3=O)cc2)CC1 (stereo partly shown) [Compound 277],31.6 to 316 nM

row,Structure (SMILES),IC50
1,CCOC(=O)C(c1ccccc1)N1CCC(c2ccc(-n3ccn([C@H](C)c4ccccc4F)c3=O)cc2)CC1 (stereo partly shown) [Compound 278],31.6 to 316 nM
2,CCOC(=O)C(c1ccccc1)N1CCC(c2ccc(-n3ccn([C@@H](C)c4ccccc4F)c3=O)cc2)CC1 (stereo partly shown) [Compound 279],316 to 3160 nM
3,COC(=O)c1cc(NC(=O)C(c2ccccc2)N2CCN(c3ccc(-n4cnn(C(C)c5ccccc5)c4=O)cc3)CC2)ccc1C (stereo not shown) [Compound 283],< 31.6 nM
4,COC(=O)c1cc(NC(=O)C(c2ccccc2)N2CCC(c3ccc(-n4cnn(C(C)c5ccccc5)c4=O)cc3)CC2)ccc1C (stereo not shown) [Compound 284],< 31.6 nM
5,COC(=O)c1ccc(NC(=O)C(c2ccccc2)N2CCC(c3ccc(-n4cnn(C(C)C)c4=O)cc3)CC2)cc1C (stereo not shown) [Compound 285],< 31.6 nM
6,COC(=O)c1ccc(CNC(=O)C(c2ccccc2)N2CCN(c3ccc(-n4ccn(C(C)C)c4=O)c(C)c3)CC2)cc1C (stereo not shown) [Compound 286],31.6 to 316 nM
7,COC(=O)c1ccc(CNC(=O)C(c2ccccc2)N2CCN(c3ccc(-n4cnn(C(C)c5ccccc5)c4=O)cc3)CC2)cc1C (stereo not shown) [Compound 287],316 to 3160 nM
8,COC(=O)c1ccc(CNC(=O)C(c2ccccc2)N2CCC(c3ccc(-n4cnn(C(C)C)c4=O)cc3)CC2)cc1C (stereo not shown) [Compound 288],31.6 to 316 nM
9,COC(=O)c1ccccc1CNC(=O)C(c1ccccc1)N1CCN(c2ccc(-n3ccn(C(C)C)c3=O)c(C)c2)CC1 (stereo not shown) [Compound 289],31.6 to 316 nM
10,COC(=O)c1cccc(CNC(=O)C(c2ccccc2)N2CCN(c3ccc(-n4ccn(C(C)C)c4=O)c(C)c3)CC2)c1 (stereo not shown) [Compound 290],316 to 3160 nM
11,COC(=O)c1cccc(CNC(=O)C(c2ccccc2)N2CCN(c3ccc(-n4ccn(C(C)c5ccccc5)c4=O)cc3)CC2)c1 (stereo not shown) [Compound 291],316 to 3160 nM
12,COC(=O)c1ccc(CNC(=O)C(c2ccccc2)N2CCN(c3ccc(-n4ccn(C(C)C)c4=O)c(C)c3)CC2)cc1 (stereo not shown) [Compound 293],316 to 3160 nM
13,COC(=O)c1ccc(CNC(=O)C(c2ccccc2)N2CCN(c3ccc(-n4cnn(C(C)c5ccccc5)c4=O)cc3)CC2)cc1 (stereo not shown) [Compound 294],316 to 3160 nM
14,COC(=O)c1ccc(CNC(=O)C(c2ccccc2)N2CCC(c3ccc(-n4cnn(C(C)C)c4=O)cc3)CC2)cc1 (stereo not shown) [Compound 295],31.6 to 316 nM
15,CCOC(=O)C(c1ccccc1)N1CCC(c2ccc(-n3ccn([C@H](C)C4CCCCC4)c3=O)cc2)CC1 (stereo partly shown) [Compound 296],31.6 to 316 nM
16,CCOC(=O)C(c1ccccc1)N1CCN(c2ccc(-n3ccn([C@H](C)c4ccccc4)c3=O)c(C)c2)CC1 (stereo partly shown) [Compound 297],31.6 to 316 nM
17,CC(C)n1ncn(-c2ccc(N3CCN(C(C(=O)Nc4ccc5c(c4)CCN(C(=O)OC(C)(C)C)C5)c4ccccc4)CC3)cc2)c1=O (stereo not shown) [Compound 305],31.6 to 316 nM
18,CC(C)n1ncn(-c2ccc(N3CCN(C(C(=O)Nc4ccc5c(c4)CC(NC(=O)OC(C)(C)C)C5)c4ccccc4)CC3)cc2)c1=O (stereo not shown) [Compound 306],< 31.6 nM
19,COC(=O)C(c1ccc(C)cc1)N1CCN(c2ccc(-n3cnn(C(C)c4ccccc4)c3=O)cc2)CC1 (stereo not shown) [Compound 318],316 to 3160 nM
20,COC(=O)C(c1ccccc1Cl)N1CCC(c2ccc(-n3cnn(C(C)C)c3=O)cc2)CC1 (stereo not shown) [Compound 319],31.6 to 316 nM
